Measured values: patent publication US20230398130A1, “METHODS AND COMPOSITIONS FOR DIFFERENTIATING STEM CELLS” (Massachusetts Institute of Technology, priority 2020, published 2023)
Structures can show the parent of a compound that is named as a salt.

Columns and labels:
ISC-enriched organoids [1] = test: Primary screen, 384-well 2.5-D organoid differentiation (ENR+CD, 6 days): carbachol-induced lysozyme secretion (LYZ.S); assay type: cell-based, murine; settings: for Dose.FC.LYZ.S: ENR+CD, 6 days, FC vs plate median; for Z.LYZ.S: standard z score; for Z.LYZ.S / SSMD.LYZ.S / Dose.FC.LYZ.S (log 2 fold change): primary screen; for SSMD.LYZ.S: strictly standardized mean difference; for Dose.FC.LYZ.S (log 2 fold change): vs plate median
Text: (§1) High-throughput screening.

ISC-enriched organoids [2] = test: Primary screen, 384-well 2.5-D organoid differentiation (ENR+CD, 6 days): basal lysozyme secretion (LYZ.NS); assay type: cell-based, murine; settings: for Dose.FC.LYZ.NS: ENR+CD, 6 days, FC vs plate median; for Z.LYZ.NS: standard z score of FC; for SSMD.LYZ.NS: strictly standardized mean difference; for SSMD.LYZ.NS / Z.LYZ.NS (standard z score) / Dose.FC.LYZ.NS (log 2 fold change): primary screen; for Dose.FC.LYZ.NS (log 2 fold change): vs plate median
Text: as §1

ISC-enriched organoids [3] = test: Primary screen, 384-well 2.5-D organoid differentiation (ENR+CD, 6 days, Target Selective Inhibitor Library, vs whole-plate median): ATP (CellTiter-Glo 3D, CTG); settings: for Dose.FC.CTG: ENR+CD, 6 days, FC vs plate median; for SSMD.CTG: strictly standardized mean difference; for Dose.FC.CTG (log 2 fold change): vs plate median
[4] = Dose 0.08 uM, standard z score of FC
[5] = Dose 0.40 uM, standard z score of FC
[6] = Dose 2.00 uM, standard z score of FC
[7] = Dose 10.00 uM, standard z score of FC
[8] = 1st of the 4 dose lines of the treatment (dose not given)
[9] = 2nd of the 4 dose lines of the treatment (dose not given)
[10] = 3rd of the 4 dose lines of the treatment (dose not given)
[11] = 4th of the 4 dose lines of the treatment (dose not given)

COc1cc2c(cc1Cc1cccc(Cl)c1F)c(=O)c(C(=O)O)cn2[C@H](CO)C(C)C [Elvitegravir (GS-9137, JTK-303)]
Dose.FC.LYZ.S (ISC-enriched organoids [1]; Dose 0.08 uM): −0.010 log 2 fold change
Dose.FC.LYZ.S (ISC-enriched organoids [1]; Dose 0.40 uM): 0.092 log 2 fold change
Dose.FC.LYZ.S (ISC-enriched organoids [1]; Dose 2.00 uM): −0.126 log 2 fold change
Dose.FC.LYZ.S (ISC-enriched organoids [1]; Dose 10.00 uM): −0.135 log 2 fold change
Dose.FC.LYZ.NS (ISC-enriched organoids [2]; Dose 0.08 uM): −0.047 log 2 fold change
Z.LYZ.NS (ISC-enriched organoids [2]; Dose 0.08 uM): −0.412
Dose.FC.LYZ.NS (ISC-enriched organoids [2]; Dose 0.40 uM): −0.069 log 2 fold change
Z.LYZ.NS (ISC-enriched organoids [2]; Dose 0.40 uM): −0.598
Dose.FC.LYZ.NS (ISC-enriched organoids [2]; Dose 2.00 uM): −0.094 log 2 fold change
Z.LYZ.NS (ISC-enriched organoids [2]; Dose 2.00 uM): −0.821
Dose.FC.LYZ.NS (ISC-enriched organoids [2]; Dose 10.00 uM): −0.090 log 2 fold change
Z.LYZ.NS (ISC-enriched organoids [2]; Dose 10.00 uM): −0.782
Dose.FC.CTG (ISC-enriched organoids [3]; Dose 0.08 uM): −0.001 log 2 fold change
Z.CTG (ISC-enriched organoids [3]; [4]): −0.001
Dose.FC.CTG (ISC-enriched organoids [3]; Dose 0.40 uM): −0.040 log 2 fold change
Z.CTG (ISC-enriched organoids [3]; [5]): −0.095
Dose.FC.CTG (ISC-enriched organoids [3]; Dose 2.00 uM): −0.344 log 2 fold change
Z.CTG (ISC-enriched organoids [3]; [6]): −0.823
Dose.FC.CTG (ISC-enriched organoids [3]; Dose 10.00 uM): −0.737 log 2 fold change
Z.CTG (ISC-enriched organoids [3]; [7]): −1.760

CC12CC3CC(C)(C1)CC(N)(C3)C2 [Memantine HCl]
Z.LYZ.S (ISC-enriched organoids [1]; [8]): 0.586
Z.LYZ.S (ISC-enriched organoids [1]; [9]): 0.112
Z.LYZ.S (ISC-enriched organoids [1]; [10]): 0.328
Z.LYZ.S (ISC-enriched organoids [1]; [11]): −0.138
SSMD.LYZ.S (ISC-enriched organoids [1]; [8]): 0.420
SSMD.LYZ.S (ISC-enriched organoids [1]; [9]): 0.134
SSMD.LYZ.S (ISC-enriched organoids [1]; [10]): 0.292
SSMD.LYZ.S (ISC-enriched organoids [1]; [11]): −0.142
SSMD.LYZ.NS (ISC-enriched organoids [2]; [8]): 0.489
SSMD.LYZ.NS (ISC-enriched organoids [2]; [9]): 0.038
SSMD.LYZ.NS (ISC-enriched organoids [2]; [10]): 0.745
SSMD.LYZ.NS (ISC-enriched organoids [2]; [11]): −0.407
Z.CTG (ISC-enriched organoids [3]; Dose 0.08 uM, primary screen, standard z score): 0.199
Z.CTG (ISC-enriched organoids [3]; Dose 0.40 uM, primary screen, standard z score): 0.173
Z.CTG (ISC-enriched organoids [3]; Dose 2.00 uM, primary screen, standard z score): −0.018
Z.CTG (ISC-enriched organoids [3]; Dose 10.00 uM, primary screen, standard z score): 0.184
SSMD.CTG (ISC-enriched organoids [3]; primary screen, 1st of the 4 dose lines of the treatment (dose not given)): 0.214
SSMD.CTG (ISC-enriched organoids [3]; primary screen, 2nd of the 4 dose lines of the treatment (dose not given)): 0.219
SSMD.CTG (ISC-enriched organoids [3]; primary screen, 3rd of the 4 dose lines of the treatment (dose not given)): −0.016
SSMD.CTG (ISC-enriched organoids [3]; primary screen, 4th of the 4 dose lines of the treatment (dose not given)): 0.145

Cc1cc(NC(=O)Nc2ccc(N(C)C)cc2)c2cc(F)cc(F)c2n1 [SB408124]
Dose.FC.LYZ.S (log 2 fold change) (ISC-enriched organoids [1]; Dose 0.08 uM): 0.198
Dose.FC.LYZ.S (log 2 fold change) (ISC-enriched organoids [1]; Dose 0.40 uM): 0.193
Dose.FC.LYZ.S (log 2 fold change) (ISC-enriched organoids [1]; Dose 2.00 uM): 0.082
Dose.FC.LYZ.S (log 2 fold change) (ISC-enriched organoids [1]; Dose 10.00 uM): −0.148
Z.LYZ.NS (standard z score) (ISC-enriched organoids [2]; Dose 0.08 uM): 1.494
Dose.FC.LYZ.NS (log 2 fold change) (ISC-enriched organoids [2]; Dose 0.08 uM): 0.172
Z.LYZ.NS (standard z score) (ISC-enriched organoids [2]; Dose 0.40 uM): 1.168
Dose.FC.LYZ.NS (log 2 fold change) (ISC-enriched organoids [2]; Dose 0.40 uM): 0.134
Z.LYZ.NS (standard z score) (ISC-enriched organoids [2]; Dose 2.00 uM): 0.730
Dose.FC.LYZ.NS (log 2 fold change) (ISC-enriched organoids [2]; Dose 2.00 uM): 0.084
Z.LYZ.NS (standard z score) (ISC-enriched organoids [2]; Dose 10.00 uM): −0.607
Dose.FC.LYZ.NS (log 2 fold change) (ISC-enriched organoids [2]; Dose 10.00 uM): −0.070
Z.CTG (standard z score) (ISC-enriched organoids [3]; Dose 0.08 uM, primary screen): 0.978
Dose.FC.CTG (log 2 fold change) (ISC-enriched organoids [3]; Dose 0.08 uM, primary screen): 0.410
Z.CTG (standard z score) (ISC-enriched organoids [3]; Dose 0.40 uM, primary screen): 0.799
Dose.FC.CTG (log 2 fold change) (ISC-enriched organoids [3]; Dose 0.40 uM, primary screen): 0.334
Z.CTG (standard z score) (ISC-enriched organoids [3]; Dose 2.00 uM, primary screen): 0.869
Dose.FC.CTG (log 2 fold change) (ISC-enriched organoids [3]; Dose 2.00 uM, primary screen): 0.364
Z.CTG (standard z score) (ISC-enriched organoids [3]; Dose 10.00 uM, primary screen): 0.216
Dose.FC.CTG (log 2 fold change) (ISC-enriched organoids [3]; Dose 10.00 uM, primary screen): 0.091

CN(C)C(=O)[C@H](O)[C@H](Cc1ccccc1)NC(=O)c1cc2cc(Cl)ccc2[nH]1 [CP-91149]
Dose.FC.LYZ.S (ISC-enriched organoids [1]; Dose 0.08 uM): 0.186 log 2 fold change
Dose.FC.LYZ.S (ISC-enriched organoids [1]; Dose 0.40 uM): 0.055 log 2 fold change
Dose.FC.LYZ.S (ISC-enriched organoids [1]; Dose 2.00 uM): −0.121 log 2 fold change
Dose.FC.LYZ.S (ISC-enriched organoids [1]; Dose 10.00 uM): −0.097 log 2 fold change
Dose.FC.LYZ.NS (ISC-enriched organoids [2]; Dose 0.08 uM): 0.177 log 2 fold change
Z.LYZ.NS (ISC-enriched organoids [2]; Dose 0.08 uM): 1.538
Dose.FC.LYZ.NS (ISC-enriched organoids [2]; Dose 0.40 uM): −0.033 log 2 fold change
Z.LYZ.NS (ISC-enriched organoids [2]; Dose 0.40 uM): −0.289
Dose.FC.LYZ.NS (ISC-enriched organoids [2]; Dose 2.00 uM): 0.028 log 2 fold change
Z.LYZ.NS (ISC-enriched organoids [2]; Dose 2.00 uM): 0.245
Dose.FC.LYZ.NS (ISC-enriched organoids [2]; Dose 10.00 uM): −0.057 log 2 fold change
Z.LYZ.NS (ISC-enriched organoids [2]; Dose 10.00 uM): −0.498
Dose.FC.CTG (ISC-enriched organoids [3]; Dose 0.08 uM): 0.031 log 2 fold change
Z.CTG (ISC-enriched organoids [3]; [4]): 0.073
Dose.FC.CTG (ISC-enriched organoids [3]; Dose 0.40 uM): −0.023 log 2 fold change
Z.CTG (ISC-enriched organoids [3]; [5]): −0.056
Dose.FC.CTG (ISC-enriched organoids [3]; Dose 2.00 uM): −0.098 log 2 fold change
Z.CTG (ISC-enriched organoids [3]; [6]): −0.234
Dose.FC.CTG (ISC-enriched organoids [3]; Dose 10.00 uM): −0.100 log 2 fold change
Z.CTG (ISC-enriched organoids [3]; [7]): −0.239

S3I-201
Dose.FC.LYZ.S (log 2 fold change) (ISC-enriched organoids [1]; Dose 0.08 uM): 0.033
Dose.FC.LYZ.S (log 2 fold change) (ISC-enriched organoids [1]; Dose 0.40 uM): 0.157
Dose.FC.LYZ.S (log 2 fold change) (ISC-enriched organoids [1]; Dose 2.00 uM): −0.004
Dose.FC.LYZ.S (log 2 fold change) (ISC-enriched organoids [1]; Dose 10.00 uM): −0.052
Z.LYZ.NS (standard z score) (ISC-enriched organoids [2]; Dose 0.08 uM): 0.445
Dose.FC.LYZ.NS (log 2 fold change) (ISC-enriched organoids [2]; Dose 0.08 uM): 0.051
Z.LYZ.NS (standard z score) (ISC-enriched organoids [2]; Dose 0.40 uM): 0.527
Dose.FC.LYZ.NS (log 2 fold change) (ISC-enriched organoids [2]; Dose 0.40 uM): 0.061
Z.LYZ.NS (standard z score) (ISC-enriched organoids [2]; Dose 2.00 uM): 0.212
Dose.FC.LYZ.NS (log 2 fold change) (ISC-enriched organoids [2]; Dose 2.00 uM): 0.024
Z.LYZ.NS (standard z score) (ISC-enriched organoids [2]; Dose 10.00 uM): −0.143
Dose.FC.LYZ.NS (log 2 fold change) (ISC-enriched organoids [2]; Dose 10.00 uM): −0.016
Z.CTG (standard z score) (ISC-enriched organoids [3]; Dose 0.08 uM, primary screen): 0.766
Dose.FC.CTG (log 2 fold change) (ISC-enriched organoids [3]; Dose 0.08 uM, primary screen): 0.321
Z.CTG (standard z score) (ISC-enriched organoids [3]; Dose 0.40 uM, primary screen): 0.382
Dose.FC.CTG (log 2 fold change) (ISC-enriched organoids [3]; Dose 0.40 uM, primary screen): 0.160
Z.CTG (standard z score) (ISC-enriched organoids [3]; Dose 2.00 uM, primary screen): 0.188
Dose.FC.CTG (log 2 fold change) (ISC-enriched organoids [3]; Dose 2.00 uM, primary screen): 0.079
Z.CTG (standard z score) (ISC-enriched organoids [3]; Dose 10.00 uM, primary screen): −0.334
Dose.FC.CTG (log 2 fold change) (ISC-enriched organoids [3]; Dose 10.00 uM, primary screen): −0.140
